Series [1] deals with 4T1 cells. Put plainly: Intracellular ROS generation (DCFH-DA). The series is classed as cell-based, murine. To be noted: 1 μM, 12 h, +L (40 mW, 500 s), hypoxia 1% O2, DCFH-DA. As to the method: Diacetyldichlorofluorescein (DCFH-DA; Cat. No. 4091-99-0, Sigma Aldrich) was used to detect intracellular ROS. […] The cells were then incubated with DCFH-DA for 30 min and subsequently exposed to photoirradiation for 500 s at a power of 40 mW. NIRF images were captured via CLSM.

Series [2] has as its system orthotopic 4T1 TNBC tumor. Put plainly: Tumor inhibition in orthotopic TNBC mouse model. The series is classed as in vivo. To be noted: for complete regression (CR), mice with CR / mice in group: i.v. equivalent 5 mg/kg VPF, n = 5. On the procedure: BL imaging was conducted every 4 days following the intraperitoneal injection of D-luciferin. The tumor volumes and body weights were measured every 2 days. Mice with tumor volumes exceeding 500 mm^3 were considered deceased.

On the set-up of series [3]: method as in doi:10.1016/j.dyepig.2020.108598. To be noted: reference value used for calculation; cited from earlier work.
A short description of series [4]: ROS generation, DPBF bleaching assay under 671 nm laser. The class given is physicochemical. To be noted: 671 nm laser 40 mW, calculated relative to VPF, n = 5. As to the method: The morphology in distilled water was observed via transmission electron microscopy (TEM; Philips). UV‒vis and fluorescence spectra were measured via a UV‒vis spectrometer (Agilent Technologies) and a fluorescence spectrometer (Hitachi), respectively. ROS generation was quantified via a bleaching assay using 1,3-diphenylisobenzofuran (DPBF; Cat. No. 105481; Sigma Aldrich).
(§1) AVPF and ANanoTAC represent the absorbance at the excitation wavelength (671 nm), whereas SVPF and SNanoTAC denote the slopes of the absorbance intensity over time. […] The resulting data were plotted, and kcat/KM was determined via Prism 10 software (GraphPad).

The next series concerns the target T1, Cat-B (Homo sapiens, UniProt P07858).
T1 construct: purchased R&D systems 953CY
The series can be described thus: Enzymatic cleavage by Cat-B (LC/MS, HPLC). The class given is biochemical. To be noted: pH 5.5 MES buffer, 37 °C. As to the method: as §1

The next series deals with T2, Cat-E (Homo sapiens, UniProt P14091).
T2 construct: purchased R&D Systems 1294-AS
T2 sequence (P14091 54-396): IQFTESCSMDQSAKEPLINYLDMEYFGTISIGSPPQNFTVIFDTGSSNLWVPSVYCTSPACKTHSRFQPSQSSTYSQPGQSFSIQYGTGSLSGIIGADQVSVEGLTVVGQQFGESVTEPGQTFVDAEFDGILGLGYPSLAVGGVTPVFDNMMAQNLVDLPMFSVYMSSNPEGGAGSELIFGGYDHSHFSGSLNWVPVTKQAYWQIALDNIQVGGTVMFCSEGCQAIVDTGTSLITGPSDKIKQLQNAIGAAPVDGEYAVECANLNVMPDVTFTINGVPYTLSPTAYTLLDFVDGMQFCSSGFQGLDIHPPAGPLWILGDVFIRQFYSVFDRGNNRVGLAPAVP
The series can be described thus: Enzymatic cleavage by Cat-E. The class given is biochemical. To be noted: pH 5.5 MES buffer, 37 °C, LC/MS. As to the method: (§2) AVPF and ANanoTAC represent the absorbance at the excitation wavelength (671 nm), whereas SVPF and SNanoTAC denote the slopes of the absorbance intensity over time. […] The cleavage rate of each sample was calculated by comparing the peak area to that of an equivalent amount of NanoTAC prior to enzyme incubation. The resulting data were plotted, and kcat/KM was determined via Prism 10 software (GraphPad).

In a further series the target is T3, Cat-L (Homo sapiens, UniProt P07711).
T3 construct: purchased R&D Systems 952-CY
The series can be described thus: Enzymatic cleavage by Cat-L. The series is classed as biochemical. To be noted: pH 5.5 MES buffer, 37 °C, LC/MS. As to the method:
as §2

A further series concerns the target T4, Cat-D (Homo sapiens, UniProt P07339).
T4 construct: purchased R&D Systems 1014-AS
Put plainly: Enzymatic cleavage by Cat-D. To be noted: pH 5.5 MES buffer, 37 °C, LC/MS. The series is classed as biochemical. On the procedure:
as §2

In another series the target is T5, caspase-3 (CASP3) (Homo sapiens, UniProt P42574).
T5 construct: purchased R&D Systems 707-C3/CF
T5 sequence (P42574 29-175 limits assumed): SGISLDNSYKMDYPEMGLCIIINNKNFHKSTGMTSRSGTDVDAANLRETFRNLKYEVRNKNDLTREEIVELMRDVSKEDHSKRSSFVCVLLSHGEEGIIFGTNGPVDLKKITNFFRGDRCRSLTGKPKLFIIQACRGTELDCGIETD
T5 sequence (P42574 176-277 limits assumed): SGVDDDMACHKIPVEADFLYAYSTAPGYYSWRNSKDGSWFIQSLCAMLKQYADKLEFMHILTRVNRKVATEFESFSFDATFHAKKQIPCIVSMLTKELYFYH
The series can be described thus: Enzymatic cleavage by caspase-3. The series is classed as biochemical. To be noted: pH 5.5 MES buffer, 37 °C, LC/MS. As to the method: as §2

The target in series [5] is T6, matrix metalloproteinase-9 (MMP-9) (Homo sapiens, UniProt P14780).
T6 construct: purchased R&D Systems 911-MP
The series can be described thus: Enzymatic cleavage by MMP-9. The series is classed as biochemical. To be noted: pH 5.5 MES buffer, 37 °C, LC/MS. On the procedure:
as §2

Another series concerns the target T7, HK2 (Mus musculus, UniProt O08528).
T7 construct: endogenous in cells; host or cells: 4T1 cells
T7 sequence (O08528 1-917): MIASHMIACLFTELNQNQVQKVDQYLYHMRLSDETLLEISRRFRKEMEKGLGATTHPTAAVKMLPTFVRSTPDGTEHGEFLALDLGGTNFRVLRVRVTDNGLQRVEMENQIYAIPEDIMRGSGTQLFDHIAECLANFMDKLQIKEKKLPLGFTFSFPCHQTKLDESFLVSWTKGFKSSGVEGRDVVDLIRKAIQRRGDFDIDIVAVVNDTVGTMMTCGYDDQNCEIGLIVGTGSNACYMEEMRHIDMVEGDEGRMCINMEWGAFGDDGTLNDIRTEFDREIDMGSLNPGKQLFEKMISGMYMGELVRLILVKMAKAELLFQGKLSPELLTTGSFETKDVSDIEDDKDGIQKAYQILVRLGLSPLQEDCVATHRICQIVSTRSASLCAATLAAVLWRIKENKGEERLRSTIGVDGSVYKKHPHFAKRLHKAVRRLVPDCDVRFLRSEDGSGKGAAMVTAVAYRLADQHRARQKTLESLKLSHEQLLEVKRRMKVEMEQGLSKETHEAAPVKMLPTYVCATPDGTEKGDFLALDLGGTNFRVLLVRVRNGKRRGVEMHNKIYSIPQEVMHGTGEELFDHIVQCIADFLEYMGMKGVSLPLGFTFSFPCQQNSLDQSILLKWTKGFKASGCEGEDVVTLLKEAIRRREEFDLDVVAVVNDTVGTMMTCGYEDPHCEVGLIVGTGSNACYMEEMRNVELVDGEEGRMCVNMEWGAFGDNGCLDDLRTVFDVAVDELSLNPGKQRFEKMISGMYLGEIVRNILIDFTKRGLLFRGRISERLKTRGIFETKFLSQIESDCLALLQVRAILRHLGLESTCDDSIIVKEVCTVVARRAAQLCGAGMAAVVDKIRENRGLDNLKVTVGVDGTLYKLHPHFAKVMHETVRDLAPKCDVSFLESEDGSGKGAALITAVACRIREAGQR
The series can be described thus: TPD analysis: intracellular HK2 level. The class given is cell-based, murine. To be noted: for time-dependent HK2 expression after washout: TNBC cells, 1 µM, 12 h treatment then washout, n = 3.

Series [6] concerns orthotopic 4T1 TNBC tumor. To be noted: tumors on day 3, flow cytometry, n = 5. On the procedure:
Following treatment of the TNBC mouse model described above, tumor tissues were collected on day 3 for immune cell population analyses. Single cells were isolated from the tumor samples via a tumor dissociation kit (Cat. No. 130-096-730; Miltenyi Biotechnology). An equal number of cells were incubated with FcBlock (Cat. No. 553142, BD Biosciences) for 5 min to prevent nonspecific IgG binding and then stained with appropriate antibodies to identify the populations of CRT-positive tumor cells (CD45^−CRT^+), mature DCs, CTLs, and regulatory T cells. As in the coculture study, HMGB1 and HSP70 in the tumor supernatants were assessed by western blot, while IL-18, IL-1β, TNF-α, IFN-γ, and IL-10 were measured via ELISA kits.
On the technique in general: In flow cytometry, cells or beads pass a laser one at a time.

For the next series, the system named is rechallenged 4T1 TNBC. To be noted: day 15 after tumor rechallenge, ELISA, n = 3. As to the method: Sixteen days post-treatment, TNBC mice were inoculated with 4T1 cells (2 × 10^5 cells per mouse) into the fourth mammary fat pad opposite the primary TNBC site. Rechallenged tumor volumes were measured every 2 days. Fifteen days after tumor rechallenge, the population of splenic Tem cells (CD3^+; CD8^+; CD44^+ [Cat. No. 103016, Biolegend]; CD62L^low [Cat. No. 104407, Biolegend]) was analyzed via flow cytometry. Finally, the serum levels of IFN-γ, IL-6, and TNF-α were quantified via ELISA.
A general note: ELISA stands for enzyme-linked immunosorbent assay.

For series [7], the system named is 4T1 cells. To be noted: without photoirradiation, absence (migration) or presence (invasion) of collagen, n = 5.

Like-named read-outs stand apart in the source and are kept apart here. Bounds are passed on as bounds.

T3 sequence (P07711 114-333): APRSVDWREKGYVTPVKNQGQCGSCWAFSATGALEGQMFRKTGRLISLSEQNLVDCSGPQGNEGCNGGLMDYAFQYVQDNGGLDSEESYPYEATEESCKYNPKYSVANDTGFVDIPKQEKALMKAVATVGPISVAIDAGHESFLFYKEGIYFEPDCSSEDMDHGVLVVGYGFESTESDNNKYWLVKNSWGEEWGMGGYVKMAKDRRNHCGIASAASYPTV
T4 sequence (P07339 65-412): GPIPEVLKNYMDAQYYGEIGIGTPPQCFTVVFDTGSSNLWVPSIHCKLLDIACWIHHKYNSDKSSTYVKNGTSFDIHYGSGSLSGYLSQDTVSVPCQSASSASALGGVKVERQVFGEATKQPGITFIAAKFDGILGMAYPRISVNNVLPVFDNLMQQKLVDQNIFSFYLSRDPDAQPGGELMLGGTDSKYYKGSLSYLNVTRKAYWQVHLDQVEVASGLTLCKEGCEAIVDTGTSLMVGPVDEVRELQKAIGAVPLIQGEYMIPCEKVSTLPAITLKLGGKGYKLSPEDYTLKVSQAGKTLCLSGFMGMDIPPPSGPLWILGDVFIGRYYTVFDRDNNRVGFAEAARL
T6 sequence (P14780 94-707): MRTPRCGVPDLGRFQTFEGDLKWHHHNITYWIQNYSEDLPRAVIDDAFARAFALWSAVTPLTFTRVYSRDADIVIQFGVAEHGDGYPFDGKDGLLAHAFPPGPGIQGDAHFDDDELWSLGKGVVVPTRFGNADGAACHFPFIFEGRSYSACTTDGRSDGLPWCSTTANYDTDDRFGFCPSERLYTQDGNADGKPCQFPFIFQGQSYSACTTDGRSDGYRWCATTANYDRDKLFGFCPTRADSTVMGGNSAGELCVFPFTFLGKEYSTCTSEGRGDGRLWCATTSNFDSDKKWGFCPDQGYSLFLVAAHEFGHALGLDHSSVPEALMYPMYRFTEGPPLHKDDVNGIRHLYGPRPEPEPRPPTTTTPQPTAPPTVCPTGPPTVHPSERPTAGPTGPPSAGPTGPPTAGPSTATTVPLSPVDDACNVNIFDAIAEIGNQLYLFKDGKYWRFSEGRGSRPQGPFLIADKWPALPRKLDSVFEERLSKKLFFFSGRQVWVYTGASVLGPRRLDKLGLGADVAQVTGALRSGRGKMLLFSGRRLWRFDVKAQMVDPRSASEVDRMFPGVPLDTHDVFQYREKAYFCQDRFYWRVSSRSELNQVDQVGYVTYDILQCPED

For the compound verteporfin [VPF, reference compound], in the series with 4T1 cells [1], the “reduction of ROS production under hypoxia compared with normoxia” value is listed as 79.1%. Moreover, the “complete regression (CR), mice with CR / mice in group” value in [2] (+L (200 mW, 15 min)) is recorded as 0/5. The “ROS quantum yield (Φ)” value in [3] was 0.78.
For VPF-KRRPIYPALAK-lonidamine [NanoTAC], the “ROS quantum yield (Φ)” value in series [4] is “≈ 0.7823”. In addition, the “cleavage in presence of Cat-B with irreversible cysteine protease inhibitor” value at Cat-B (Cat-B with Z-FA-FMK, LC/MS) is on record as “no detectable cleavage”. Also, in the series with Cat-B (NanoTAC 5-80 μM, 5 μg Cat-B, HPLC), the “catalytic efficiency (kcat/KM)” value is 27,898 M^−1S^−1. The “time for conversion into PROTAC and lysine-conjugated VPF (K-VPF) with Cat-B” value with Cat-B (LC/MS) was ≤ 1 h. The “cleavage by Cat-E” value at Cat-E is reported as “no cleavage behavior”. Further, the “cleavage by Cat-L” value on Cat-L is “no cleavage behavior”. The “cleavage by Cat-D” value on Cat-D is “no cleavage behavior”. The “cleavage by CASP3” value on caspase-3 (CASP3) is listed as “no cleavage behavior”. Moreover, the “cleavage by MMP-9” value in series [5] is “no cleavage behavior”. Besides, on HK2 (4T1 cells, 1 μM, 12 h, anti-HK2 staining, CLSM), the “intracellular HK2 level after treatment” value was “significantly decreased intracellular HK2 levels”. For the same compound, at HK2, the “time-dependent HK2 expression after washout” value is given as “sustained degradation of the target protein”. For the same compound, the “reduction of ROS production under hypoxia compared with normoxia” value with 4T1 cells [1] worked out at 36.1%. Besides, in series [2] (+L, n = 5, log-rank test), the “survival of TNBC mice” value was “significantly prolonged survival”. Also, the “complete regression (CR), mice with CR / mice in group” value in [2] (+L (200 mW, 15 min)) is recorded as 3/5. Besides, the “complete regression (CR), mice with CR / mice in group” value in series [2] (−L) is listed as 0/5. Besides, in series [6], the “intratumoral Treg population, NanoTAC (+L) relative to NanoTAC (−L)” value stood at 72.01% and the “intratumoral Treg population, NanoTAC (+L) relative to VPF (+L)” value amounted to 44.81%. Moreover, in the series on rechallenged 4T1 TNBC, the “serum IFN-γ, fold of NanoTAC (+L)-treated CR mice over naive mice” value is 1.33 fold; the “serum IL-6, fold of NanoTAC (+L)-treated CR mice over naive mice” value came out at 1.32 fold; the “serum TNF-α, fold of NanoTAC (+L)-treated CR mice over naive mice” value was 1.4 fold. Also, the “migratory and invasive phenotypes” value with 4T1 cells [7] was “reduced migratory and invasive phenotypes”.
For `O=C(O)c1nn(Cc2ccc(Cl)cc2Cl)c2ccccc12` [lonidamine, reference compound], the “time-dependent HK2 expression after washout” value at HK2 is given as “initial reduction in the intracellular HK2 level followed by eventual regeneration”.

The values above are taken from paper PMC12464334, “Reprogramming of cancer metabolism via photoresponsive nano-PROTAC enhances pyroptosis-mediated immunotherapy” (Signal Transduction and Targeted Therapy, 2025).
